In the experiment the test system is recombinant NL4-3 virus (Renilla luciferase in nef, Gag P373S). Kind of experiment: HIV cell culture assay (luciferase activity in MT-2 cells infected with NLRluc recombinant virus). Format: cell-based. Particulars: NL43, MT-2 cells infected 4-5 days with NLRluc recombinant virus. Put shortly:
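MT-2 cells in RPMI/10% FBS were infected with recombinant NL4-3 (NLRluc), produced by 293T transfection and titered in MT-2 by luciferase. Serial inhibitor dilutions were present throughout a 4–5 day infection. Antiviral activity was quantified as Renilla luciferase signal via a modified Dual Luciferase read.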

As a reminder, the EC50 is the concentration giving half of the maximal effect. For `C=C(C)[C@@H]1CC[C@]2(CNCCCN(CCO)CCO)CC[C@]3(C)[C@H](CC[C@@H]4[C@@]5(C)CC=C(c6ccc(C(=O)O)cc6)C(C)(C)[C@@H]5CC[C@]43C)[C@@H]12` [Example 60, 4-((1R,3aS,5aR,5bR,7aR,11aS,11bR,13aR,13bR)-3a-((3-(bis(2-hydroxyethyl)amino)propylamino)methyl)-5a,5b,8,8,11a-pentamethyl-1-(prop-1-en-2-yl)-2,3,3a,4,5,5a,5b,6,7,7a,8,11,11a,11b,12,13,13a,13b-octadecahydro-1H-cyclopenta[a]chrysen-9-yl)benzoic acid], the EC50 (class symbol) is under 0.1 µM. Same read-out and setting: with `C=C(C)[C@@H]1CC[C@]2(CNCCCNCCO)CC[C@]3(C)[C@H](CC[C@@H]4[C@@]5(C)CC=C(c6ccc(C(=O)O)cc6)C(C)(C)[C@@H]5CC[C@]43C)[C@@H]12` [Example 61, 4-((1R,3aS,5aR,5bR,7aR,11aS,11bR,13aR,13bR)-3a-((3-(2-hydroxyethylamino)propylamino)methyl)-5a,5b,8,8,11a-pentamethyl-1-(prop-1-en-2-yl)-2,3,3a,4,5,5a,5b,6,7,7a,8,11,11a,11b,12,13,13a,13b-octadecahydro-1H-cyclopenta[a]chrysen-9-yl)benzoic acid] the figure was under 0.1 µM; with `C=C(C)[C@@H]1CC[C@]2(CNCCNCCO)CC[C@]3(C)[C@H](CC[C@@H]4[C@@]5(C)CC=C(c6ccc(C(=O)O)cc6)C(C)(C)[C@@H]5CC[C@]43C)[C@@H]12` [Example 62, 4-((1R,3aS,5aR,5bR,7aR,11aS,11bR,13aR,13bR)-3a-((2-(2-hydroxyethylamino)ethylamino)methyl)-5a,5b,8,8,11a-pentamethyl-1-(prop-1-en-2-yl)-2,3,3a,4,5,5a,5b,6,7,7a,8,11,11a,11b,12,13,13a,13b-octadecahydro-1H-cyclopenta[a]chrysen-9-yl)benzoic acid], under 0.1 µM; with `C=C(C)[C@@H]1CC[C@]2(CNCCN3CCOCC3)CC[C@]3(C)[C@H](CC[C@@H]4[C@@]5(C)CC=C(c6ccc(C(=O)O)cc6)C(C)(C)[C@@H]5CC[C@]43C)[C@@H]12` [Example 63, 4-((1R,3aS,5aR,5bR,7aR,11aS,11bR,13aR,13bR)-5a,5b,8,8,11a-pentamethyl-3a-((2-morpholinoethylamino)methyl)-1-(prop-1-en-2-yl)-2,3,3a,4,5,5a,5b,6,7,7a,8,11,11a,11b,12,13,13a,13b-octadecahydro-1H-cyclopenta[a]chrysen-9-yl)benzoic acid], under 0.1 µM.

As to `C=C(C)[C@@H]1CC[C@]2(CNCCC(=O)O)CC[C@]3(C)[C@H](CC[C@@H]4[C@@]5(C)CC=C(c6ccc(C(=O)O)cc6)C(C)(C)[C@@H]5CC[C@]43C)[C@@H]12` [Example 64, 4-((1R,3aS,5aR,5bR,7aR,11aS,11bR,13aR,13bR)-3a-((2-carboxymethylamino)methyl)-5a,5b,8,8,11a-pentamethyl-1-(prop-1-en-2-yl)-2,3,3a,4,5,5a,5b,6,7,7a,8,11,11a,11b,12,13,13a,13b-octadecahydro-1H-cyclopenta[a]chrysen-9-yl)benzoic acid], the EC50 (class symbol) was under 0.1 µM. On to `C=C(C)[C@@H]1CC[C@]2(CNCCCBr)CC[C@]3(C)[C@H](CC[C@@H]4[C@@]5(C)CC=C(c6ccc(C(=O)O)cc6)C(C)(C)[C@@H]5CC[C@]43C)[C@@H]12` [Example 65, 4-((1R,3aS,5aR,5bR,7aR,11aS,11bR,13aR,13bR)-3a-((3-bromopropylamino)methyl)-5a,5b,8,8,11a-pentamethyl-1-(prop-1-en-2-yl)-2,3,3a,4,5,5a,5b,6,7,7a,8,11,11a,11b,12,13,13a,13b-octadecahydro-1H-cyclopenta[a]chrysen-9-yl)benzoic acid], for which, where the note is “numeric value”, the EC50 is 0.001 µM. Take `C=C(C)[C@@H]1CC[C@]2(CNCC3(CN4CCCC4)CC3)CC[C@]3(C)[C@H](CC[C@@H]4[C@@]5(C)CC=C(c6ccc(C(=O)O)cc6)C(C)(C)[C@@H]5CC[C@]43C)[C@@H]12` [Example 66, 4-((1R,3aS,5aR,5bR,7aR,11aS,11bR,13aR,13bR)-5a,5b,8,8,11a-pentamethyl-1-(prop-1-en-2-yl)-3a-(((1-(pyrrolidin-1-ylmethyl)cyclopropyl)methylamino)methyl)-2,3,3a,4,5,5a,5b,6,7,7a,8,11,11a,11b,12,13,13a,13b-octadecahydro-1H-cyclopenta[a]chrysen-9-yl)benzoic acid]: the EC50 (class symbol) is under 0.1 µM. On the same count and under the same terms, next, `C=C(C)[C@@H]1CC[C@]2(CNCCCN)CC[C@]3(C)[C@H](CC[C@@H]4[C@@]5(C)CC=C(c6ccc(C(=O)O)cc6)C(C)(C)[C@@H]5CC[C@]43C)[C@@H]12` [Example 67, 4-((1R,3aS,5aR,5bR,7aR,11aS,11bR,13aR,13bR)-3a-((3-aminopropylamino)methyl)-5a,5b,8,8,11a-pentamethyl-1-(prop-1-en-2-yl)-2,3,3a,4,5,5a,5b,6,7,7a,8,11,11a,11b,12,13,13a,13b-octadecahydro-1H-cyclopenta[a]chrysen-9-yl)benzoic acid]: under 0.1 µM.

As for `C=C(C)[C@@H]1CC[C@]2(CNCCCN3CCCC3)CC[C@]3(C)[C@H](CC[C@@H]4[C@@]5(C)CC=C(c6ccc(C(=O)O)cc6)C(C)(C)[C@@H]5CC[C@]43C)[C@@H]12` [Example 68, 4-((1R,3aS,5aR,5bR,7aR,11aS,11bR,13aR,13bR)-5a,5b,8,8,11a-pentamethyl-1-(prop-1-en-2-yl)-3a-((3-(pyrrolidin-1-yl)propylamino)methyl)-2,3,3a,4,5,5a,5b,6,7,7a,8,11,11a,11b,12,13,13a,13b-octadecahydro-1H-cyclopenta[a]chrysen-9-yl)benzoic acid], the EC50 (class symbol) is under 0.1 µM. The same measure, in the same setting: next, `C=C(C)[C@@H]1CC[C@]2(CNCCCO)CC[C@]3(C)[C@H](CC[C@@H]4[C@@]5(C)CC=C(c6ccc(C(=O)O)cc6)C(C)(C)[C@@H]5CC[C@]43C)[C@@H]12` [Example 69, 4-((1R,3aS,5aR,5bR,7aR,11aS,11bR,13aR,13bR)-3a-((3-hydroxypropylamino)methyl)-5a,5b,8,8,11a-pentamethyl-1-(prop-1-en-2-yl)-2,3,3a,4,5,5a,5b,6,7,7a,8,11,11a,11b,12,13,13a,13b-octadecahydro-1H-cyclopenta[a]chrysen-9-yl)benzoic acid]: under 0.1 µM. The same measure, in the same setting: next, `C=C(C)[C@@H]1CC[C@]2(CNCCC(=O)N3CCCC3)CC[C@]3(C)[C@H](CC[C@@H]4[C@@]5(C)CC=C(c6ccc(C(=O)O)cc6)C(C)(C)[C@@H]5CC[C@]43C)[C@@H]12` [Example 70, 4-((1R,3aS,5aR,5bR,7aR,11aS,11bR,13aR,13bR)-5a,5b,8,8,11a-pentamethyl-3a-((3-oxo-3-(pyrrolidin-1-yl)propylamino)methyl)-1-(prop-1-en-2-yl)-2,3,3a,4,5,5a,5b,6,7,7a,8,11,11a,11b,12,13,13a,13b-octadecahydro-1H-cyclopenta[a]chrysen-9-yl)benzoic acid]: under 0.1 µM; `C=C(C)[C@@H]1CC[C@]2(CNCCCN3C(=O)CCC3=O)CC[C@]3(C)[C@H](CC[C@@H]4[C@@]5(C)CC=C(c6ccc(C(=O)O)cc6)C(C)(C)[C@@H]5CC[C@]43C)[C@@H]12` [Example 71, 4-((1R,3aS,5aR,5bR,7aR,11aS,11bR,13aR,13bR)-3a-((3-(2,5-dioxopyrrolidin-1-yl)propylamino)methyl)-5a,5b,8,8,11a-pentamethyl-1-(prop-1-en-2-yl)-2,3,3a,4,5,5a,5b,6,7,7a,8,11,11a,11b,12,13,13a,13b-octadecahydro-1H-cyclopenta[a]chrysen-9-yl)benzoic acid]: under 0.1 µM; `C=C(C)[C@@H]1CC[C@]2(CNCCCN3CCCCC3)CC[C@]3(C)[C@H](CC[C@@H]4[C@@]5(C)CC=C(c6ccc(C(=O)O)cc6)C(C)(C)[C@@H]5CC[C@]43C)[C@@H]12` [Example 72, 4-((1R,3aS,5aR,5bR,7aR,11aS,11bR,13aR,13bR)-5a,5b,8,8,11a-pentamethyl-3a-((3-(piperidin-1-yl)propylamino)methyl)-1-(prop-1-en-2-yl)-2,3,3a,4,5,5a,5b,6,7,7a,8,11,11a,11b,12,13,13a,13b-octadecahydro-1H-cyclopenta[a]chrysen-9-yl)benzoic acid]: under 0.1 µM. Still for that read-out and setting: next, `C=C(C)[C@@H]1CC[C@]2(CNC/C=C/CN3CCS(=O)(=O)CC3)CC[C@]3(C)[C@H](CC[C@@H]4[C@@]5(C)CC=C(c6ccc(C(=O)O)cc6)C(C)(C)[C@@H]5CC[C@]43C)[C@@H]12` [Example 73, 4-((1R,3aS,5aR,5bR,7aR,11aS,11bR,13aR,13bR)-3a-((((2E)-4-(1,1-dioxido-4-thiomorpholinyl)-2-buten-1-yl)amino)methyl)-1-isopropenyl-5a,5b,8,8,11a-pentamethyl-2,3,3a,4,5,5a,5b,6,7,7a,8,11,11a,11b,12,13,13a,13b-octadecahydro-1H-cyclopenta[a]chrysen-9-yl)benzoic acid]: under 0.1 µM; `C=C(C)[C@@H]1CC[C@]2(CNCCCN3CCCC3CO)CC[C@]3(C)[C@H](CC[C@@H]4[C@@]5(C)CC=C(c6ccc(C(=O)O)cc6)C(C)(C)[C@@H]5CC[C@]43C)[C@@H]12` (stereo partly drawn) [Example 74, 4-((1R,3aS,5aR,5bR,7aR,11aS,11bR,13aR,13bR)-3a-((3-(2-(hydroxymethyl)pyrrolidin-1-yl)propylamino)methyl)-5a,5b,8,8,11a-pentamethyl-1-(prop-1-en-2-yl)-2,3,3a,4,5,5a,5b,6,7,7a,8,11,11a,11b,12,13,13a,13b-octadecahydro-1H-cyclopenta[a]chrysen-9-yl)benzoic acid]: under 0.1 µM.

The record behind these values is patent US8748415B2 (priority 2011, dated 2014).
